From PubChem BioAssay (NCI)
“And” between values parts separate entries of the source, which are not always exact repeats. Equal entries are not always repeated.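 Tested at 5 concentrations; 48 h exposure; 96-well plates; endpoints linearly interpolated, else capped at highest concentration. GI50 marks 50% less growth. At the TGI there is no net growth.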

How the values were obtained:
Assay in all cases: inhibition of tumour cell growth, NCI panel, 48 h
COLO 205 colon = tested on: COLO 205 colon
DLD-1 colon = tested on: DLD-1 colon
DMS 273 small cell lung = tested on: DMS 273 small cell lung
HOP-18 NSCLC = tested on: HOP-18 NSCLC
KM20L2 colon = tested on: KM20L2 colon
LXFL 529 NSCLC = tested on: LXFL 529 NSCLC
M19-MEL melanoma = tested on: M19-MEL melanoma
NCI-H23 lung = tested on: NCI-H23 lung
NCI-H460 lung = tested on: NCI-H460 lung
SF-268 CNS = tested on: SF-268 CNS
SNB-78 CNS = tested on: SNB-78 CNS
XF 498 CNS = tested on: XF 498 CNS
DMS 114 small cell lung = tested on: DMS 114 small cell lung

Compound	TGI (COLO 205 colon)	TGI (DLD-1 colon)	TGI (DMS 273 small cell lung)	TGI (HOP-18 NSCLC)	TGI (KM20L2 colon)	TGI (LXFL 529 NSCLC)	TGI (M19-MEL melanoma)	TGI (NCI-H23 lung)	TGI (NCI-H460 lung)	TGI (SF-268 CNS)	TGI (SNB-78 CNS)	TGI (XF 498 CNS)	TGI (DMS 114 small cell lung)	GI50 (COLO 205 colon)	GI50 (DMS 273 small cell lung)	GI50 (M19-MEL melanoma)	GI50 (NCI-H460 lung)	GI50 (SF-268 CNS)	GI50 (SNB-78 CNS)	GI50 (XF 498 CNS)
O=c1cc(-c2ccccc2)[nH]c2cc3c(cc12)OCO3	65.7 µM	> 100 µM	84.9 µM	> 100 µM	12.2 µM	> 100 µM	> 100 µM	> 28.6 µM	> 57.8 µM	> 17.5 µM	> 78.8 µM	> 67.2 µM	–	–	–	–	–	–	–	–
Clc1ccc(-c2c(C3=NCCN3)nnn2-c2ccc(Cl)cc2)cc1	25.4 µM	> 100 µM	> 100 µM	> 100 µM	32.7 µM	95.4 µM	30.5 µM	> 100 µM	> 100 µM	> 100 µM	61.7 µM	29.5 µM	31.5 µM	–	–	–	–	–	–	–
COC(=O)C(=C/c1ccc(OC)cc1)/C(C(=O)O)=C(/C)c1ccccc1	> 100 µM	> 100 µM	> 100 µM	> 100 µM	> 100 µM	> 100 µM	> 100 µM	> 100 µM	> 100 µM	–	> 100 µM	> 100 µM	–	–	–	–	–	–	–	–
CCCCCC(C[N+]1(C)CCOCC1)C(=O)/C=C/c1ccccc1 (configuration not stated)	35.9 µM	18 µM	11.7 µM	32.1 µM	32.9 µM	11.5 µM	32 µM	32 µM	> 61.5 µM	–	46.9 µM	28.3 µM	26 µM	–	–	–	–	–	–	–
O=C(C[n+]1ccccc1)NNC(=O)/C(=C/c1ccc2c(c1)OCO2)NC(=O)c1ccccc1	> 65.5 µM	> 62.2 µM	> 69.8 µM	> 84.7 µM	> 100 µM	> 77.2 µM	> 100 µM	> 100 µM	98.3 µM	> 100 µM	> 100 µM	> 83.5 µM	46.4 µM	–	–	–	–	–	–	–
C=CCn1c(=O)n(CC=C)c(=O)n(CC=C)c1=O	> 100 µM	> 100 µM	> 100 µM	> 100 µM	> 100 µM	> 100 µM	> 100 µM	> 100 µM	> 100 µM	> 100 µM	> 100 µM	–	> 100 µM	–	–	–	–	–	–	–
O=[N+]([O-])c1ccc(-n2nnc(C3=NCCCN3)c2-c2ccc(Cl)cc2)cc1	> 100 µM	> 100 µM	> 100 µM	> 100 µM	> 100 µM	> 100 µM	> 100 µM	> 100 µM	> 100 µM	> 100 µM	> 100 µM	> 100 µM	–	–	–	–	–	–	–	–
Nc1ccc(C(=O)NN2C(=O)C(Cl)C2c2ccccc2Cl)cc1 (configuration not stated)	28.1 µM	23 µM	12 µM	8.87 µM	29.9 µM	5.23 µM	20.5 µM	24.9 µM	16.5 µM	15.2 µM	33 µM	31.5 µM	18.8 µM	–	–	–	–	–	–	–
NC(CCC(=O)NC(CSC(=O)N(O)c1ccc(Br)cc1)C(=O)NCC(=O)O)C(=O)O (configuration not stated)	> 100 µM	> 100 µM	> 100 µM	> 100 µM	> 100 µM	> 100 µM	> 100 µM	> 100 µM	> 100 µM	> 100 µM	> 100 µM	–	> 100 µM	–	–	–	–	–	–	–
O=c1[nH]cc(COCC(F)(F)C(F)(F)C(F)(F)C(F)F)c(=O)[nH]1	> 100 µM	> 100 µM	–	> 100 µM	> 100 µM	> 100 µM	> 100 µM	> 100 µM	–	> 100 µM	–	–	> 100 µM	–	–	–	–	–	–	–
Cc1cn(C2CC(N(O)Cc3ccccc3)C(CO)O2)c(=O)[nH]c1=O (configuration not stated)	> 100 µM	–	> 100 µM	–	> 100 µM	> 100 µM	> 100 µM	> 100 µM	> 100 µM	> 100 µM	> 100 µM	> 100 µM	> 100 µM	–	–	–	–	–	–	–
N#CC(NNC(=O)Cc1ccccc1)c1ccccc1O (configuration not stated)	> 100 µM	> 100 µM	> 100 µM	74.9 µM	–	> 100 µM	27 µM	76.4 µM	> 100 µM	98.7 µM	> 100 µM	–	–	–	–	–	–	–	–	–
CCOC(=O)C(N)CSC(=O)NC (configuration not stated)	360 µM	474 µM	375 µM	686 µM	507 µM	–	157 µM	469 µM	397 µM	443 µM	–	289 µM	147 µM	–	–	–	–	–	–	–
Cc1ccc2c(c1CCCC(C)(C)O)C(=O)C(=O)C(C(C)C)=C2O	> 100 µM	> 100 µM	> 100 µM	> 100 µM	> 100 µM	> 100 µM	> 100 µM	> 100 µM	> 100 µM	> 100 µM	–	–	> 100 µM	–	–	–	–	–	–	–
COc1cc2c(cc1OC)C(O)[C@H](Br)C(C)(C)O2 (some centres not stated)	> 100 µM	> 100 µM	> 100 µM	> 100 µM	> 100 µM	> 100 µM	> 100 µM	> 100 µM	> 100 µM	> 100 µM	–	> 100 µM	> 100 µM	–	–	–	–	–	–	–
O=C1C(Cl)C(c2ccccc2)N1n1cnc2ccccc2c1=O (configuration not stated)	> 100 µM	> 100 µM	> 100 µM	> 100 µM	> 100 µM	> 100 µM	> 100 µM	> 100 µM	> 100 µM	> 100 µM	> 100 µM	> 100 µM	> 100 µM	–	–	–	–	–	–	–

Compound	TGI (COLO 205 colon)	TGI (DLD-1 colon)	TGI (DMS 273 small cell lung)	TGI (HOP-18 NSCLC)	TGI (KM20L2 colon)	TGI (LXFL 529 NSCLC)	TGI (M19-MEL melanoma)	TGI (NCI-H23 lung)	TGI (NCI-H460 lung)	TGI (SF-268 CNS)	TGI (SNB-78 CNS)	TGI (XF 498 CNS)	TGI (DMS 114 small cell lung)	GI50 (COLO 205 colon)	GI50 (DMS 273 small cell lung)	GI50 (M19-MEL melanoma)	GI50 (NCI-H460 lung)	GI50 (SF-268 CNS)	GI50 (SNB-78 CNS)	GI50 (XF 498 CNS)
C=C1C(=O)O[C@H]2[C@H]1[C@@H](OC(=O)C=C(C)C)CC1=C[C@@H](C[C@@]3(C)O[C@@H]23)OC1=O	2.49 µM and 4.17 µM	11.8 µM	–	10.2 µM	–	–	8.29 µM and 16.7 µM	13.5 µM	5.83 µM and 31.8 µM	35.6 µM and 22.9 µM	15.1 µM and 40.2 µM	3.79 µM and 4.51 µM	–	0.993 µM and 2.27 µM	24.7 µM	4.37 µM	2.27 µM and 14.9 µM	17.5 µM and 5.11 µM	2.35 µM and 10.6 µM	2.4 µM
Cc1ccc(C2CC(c3ccco3)=NN2c2ccccc2)o1 (configuration not stated)	> 100 µM	–	> 100 µM	–	> 100 µM	> 100 µM	> 100 µM	> 100 µM	> 100 µM	> 100 µM	> 100 µM	> 100 µM	> 100 µM	–	–	–	–	–	–	–
CC(C)(C)C(=O)/C=C/c1ccc(Oc2ccccc2)cc1	–	61.4 µM	–	34.9 µM	40.2 µM	28.9 µM	> 100 µM	–	43.9 µM	62.1 µM	75.7 µM	28.8 µM	–	–	–	–	–	–	–	–
C/C(=C1/CCCC2(N=NCC2c2ccccc2)C1=O)c1ccccc1 (configuration not stated)	31.1 µM	> 100 µM	33.3 µM	> 100 µM	> 100 µM	65.1 µM	65 µM	67.5 µM	> 100 µM	> 100 µM	90.2 µM	49.2 µM	33.2 µM	–	–	–	–	–	–	–
COc1c(C)c2c(c(C)c1Cl)Oc1c(C=O)c(O)c(Cl)c(C)c1C(=O)O2	66.4 µM	> 100 µM	70.5 µM	–	82.9 µM	82.9 µM	> 100 µM	45.2 µM	> 100 µM	> 100 µM	54.7 µM	22.7 µM	79.1 µM	–	–	–	–	–	–	–
COc1cc2c(cc1OCc1ccccc1)CNCC2	> 100 µM	> 100 µM	> 100 µM	> 100 µM	> 100 µM	> 100 µM	> 100 µM	> 100 µM	> 100 µM	> 100 µM	> 100 µM	> 100 µM	> 100 µM	–	–	–	–	–	–	–
CC12CCC(C(=O)OC1=O)C2(C)C (configuration not stated)	> 100 µM	–	–	–	–	–	–	> 100 µM	> 100 µM	> 100 µM	–	–	–	–	–	–	–	–	–	–
Cc1cccc(NC(=O)/C=C/c2ccc(N(CCC#N)CCC#N)cc2C)c1	> 100 µM	> 100 µM	> 100 µM	–	> 100 µM	> 100 µM	> 100 µM	> 100 µM	> 100 µM	> 100 µM	–	> 100 µM	> 100 µM	–	–	–	–	–	–	–
Clc1ccc(Cl)c(Nc2ccnc(SCc3ccccc3)n2)c1	> 100 µM	–	–	–	–	–	–	> 100 µM	> 100 µM	> 100 µM	–	–	–	–	–	–	–	–	–	–
N#CSc1nc[nH]c1C(N)=O	> 100 µM	–	–	–	–	–	–	> 100 µM	> 100 µM	> 100 µM	–	–	–	–	–	–	–	–	–	–
O=C(c1ccccc1)c1c(-c2ccccc2)[nH]n(-c2ccc([N+](=O)[O-])cc2)c(=O)c1=O	> 100 µM	–	–	–	–	–	–	> 100 µM	> 100 µM	> 100 µM	–	–	–	–	–	–	–	–	–	–
COc1ccc(C(=O)C(CO)Oc2ccccc2OC)cc1OC (configuration not stated)	> 100 µM	> 100 µM	> 100 µM	–	> 100 µM	> 100 µM	> 100 µM	> 100 µM	> 100 µM	> 100 µM	> 100 µM	> 100 µM	> 100 µM	–	–	–	–	–	–	–
COc1ccc2c(c1C)C(=O)C(O)(CC=C(C)C)O2 (configuration not stated)	> 100 µM	–	–	–	–	–	–	> 100 µM	> 100 µM	> 100 µM	–	–	–	–	–	–	–	–	–	–
CNC(=S)N/N=C(C)\C(=N/NC(=S)NC)c1ccccc1	> 100 µM	–	–	–	–	–	–	> 100 µM	> 100 µM	> 100 µM	–	–	–	–	–	–	–	–	–	–
COc1cc(/C=C2\C[C@H]3[C@@H]4CC=C5C[C@@H](O)CC[C@]5(C)[C@H]4CC[C@]3(C)C2=O)cc(OC)c1OC	54.9 µM	–	–	–	–	–	–	> 100 µM	> 100 µM	> 100 µM	–	–	–	–	–	–	–	–	–	–
